Experimental data reported in ChEMBL document CHEMBL3046483, “Novel 2'-hydroxylfurylchalcones: synthesis and biological activity” (2010).
The source made the active and inactive calls. The rule behind the calls is not given here.

How the values were obtained:
Triticum aestivum [1] = experiment: Herbicidal activity against Triticum aestivum (wheat) assessed as inhibitory rate of fresh weight gain at 7.5 g/hm'2 relative to control; type: functional
Dinebra chinensis [2] = experiment: Herbicidal activity against Dinebra chinensis assessed as inhibitory rate of fresh weight gain at 7.5 g/hm'2 relative to control; type: functional
Cucumis sativus [3] = experiment: Herbicidal activity against Cucumis sativus (cucumber) assessed as inhibitory rate of seedling height at 7.5 g/hm'2 relative to control; type: functional
Pyricularia grisea = experiment: Antifungal activity against Magnaporthe grisea assessed as rice blast control measured after 1 day; type: functional, organism-based
[4] = test system: Golovinomyces cichoracearum; experiment: Antifungal activity against Golovinomyces cichoracearum assessed as cucumber powdery mildew control measured after 1 day; type: functional; set-up: concentration or dose not given beside the values
Cucumis sativus [5] = experiment: Herbicidal activity against Cucumis sativus (cucumber) assessed as inhibitory rate of fresh weight gain at 7.5 g/hm'2 relative to control; type: functional
Sorghum bicolor [6] = experiment: Herbicidal activity against Sorghum bicolor assessed as inhibitory rate of fresh weight gain at 7.5 g/hm'2 relative to control; type: functional
[7] = test system: Brassica rapa subsp. oleifera; experiment: Herbicidal activity against Brassica rapa subsp. oleifera assessed as inhibitory rate of seedling height at 7.5 g/hm'2 relative to control; type: functional
Amaranthus tricolor [8] = experiment: Herbicidal activity against Amaranthus tricolor assessed as inhibitory rate of fresh weight gain at 7.5 g/hm'2 relative to control; type: functional
[9] = test system: Pseudoperonospora cubensis; experiment: Antifungal activity against Pseudoperonospora cubensis assessed as cucumber downy mildew control measured after 1 day; type: functional, organism-based
Sorghum bicolor [10] = experiment: Herbicidal activity against Sorghum bicolor assessed as inhibitory rate of seedling height at 7.5 g/hm'2 relative to control; type: functional
Dinebra chinensis [11] = experiment: Herbicidal activity against Dinebra chinensis assessed as inhibitory rate of seedling height at 7.5 g/hm'2 relative to control; type: functional
Triticum aestivum [12] = experiment: Herbicidal activity against Triticum aestivum (wheat) assessed as inhibitory rate of seedling height at 7.5 g/hm'2 relative to control; type: functional
Botrytis cinerea = experiment: Antifungal activity against Botryotinia fuckeliana assessed as cucumber grey mould control measured after 1 day; type: functional, organism-based
[13] = test system: Brassica rapa subsp. oleifera; experiment: Herbicidal activity against Brassica rapa subsp. oleifera assessed as inhibitory rate of fresh weight gain at 7.5 g/hm'2 relative to control; type: functional
Amaranthus tricolor [14] = experiment: Herbicidal activity against Amaranthus tricolor assessed as inhibitory rate of seedling height at 7.5 g/hm'2 relative to control; type: functional

Structure (SMILES) | inhibition (INH) (Triticum aestivum [1]) | inhibition (INH) (Dinebra chinensis [2]) | inhibition (INH) (Cucumis sativus [3]) | Activity (Pyricularia grisea) | Activity [4] | inhibition (INH) (Cucumis sativus [5]) | inhibition (INH) (Sorghum bicolor [6]) | inhibition (INH) [7] | inhibition (INH) (Amaranthus tricolor [8]) | Activity [9] | inhibition (INH) (Sorghum bicolor [10]) | inhibition (INH) (Dinebra chinensis [11]) | inhibition (INH) (Triticum aestivum [12]) | Activity (Botrytis cinerea) | inhibition (INH) [13] | inhibition (INH) (Amaranthus tricolor [14])
O=C(/C=C/c1ccco1)c1occc1O | 49.6% | 56.1% | 36.1% | inactive | <10% | 49.7% | 12.4% | 38.1% | 69.6% | inactive | 4% | -3.2% | 24.4% | inactive | 82.1% | 12.5%
Cc1ccc(/C=C/C(=O)c2occc2O)cc1 | 53% | 47.8% | 32.7% | inactive | <10% | 39.3% | 32.3% | 33.3% | 72.2% | inactive | -3.8% | -10.1% | 28.1% | inactive | 45.9% | 12.5%
N#Cc1cccc(/C=C/C(=O)c2occc2O)c1 | 36.1% | 12.4% | 33.3% | inactive | <10% | 13.7% | 24% | 14.3% | 31.7% | inactive | 34% | -12.3% | 30.5% | inactive | -5.9% | 37.5%
